From patent US11524966B1 (Valo Early Discovery, Inc., priority 2017, dated 2022)

Molecular target: T1, USP28 (USP28-5(1-1077)-TEV-6*His; LifeSensors) (Homo sapiens, UniProt Q96RU2)
T1 construct: construct USP28 (USP28-5(1-1077)-TEV-6*His; LifeSensors); TEV cleavage site (C); 6xHis (C); purchased LifeSensors
T1 sequence (Q96RU2 1-1077): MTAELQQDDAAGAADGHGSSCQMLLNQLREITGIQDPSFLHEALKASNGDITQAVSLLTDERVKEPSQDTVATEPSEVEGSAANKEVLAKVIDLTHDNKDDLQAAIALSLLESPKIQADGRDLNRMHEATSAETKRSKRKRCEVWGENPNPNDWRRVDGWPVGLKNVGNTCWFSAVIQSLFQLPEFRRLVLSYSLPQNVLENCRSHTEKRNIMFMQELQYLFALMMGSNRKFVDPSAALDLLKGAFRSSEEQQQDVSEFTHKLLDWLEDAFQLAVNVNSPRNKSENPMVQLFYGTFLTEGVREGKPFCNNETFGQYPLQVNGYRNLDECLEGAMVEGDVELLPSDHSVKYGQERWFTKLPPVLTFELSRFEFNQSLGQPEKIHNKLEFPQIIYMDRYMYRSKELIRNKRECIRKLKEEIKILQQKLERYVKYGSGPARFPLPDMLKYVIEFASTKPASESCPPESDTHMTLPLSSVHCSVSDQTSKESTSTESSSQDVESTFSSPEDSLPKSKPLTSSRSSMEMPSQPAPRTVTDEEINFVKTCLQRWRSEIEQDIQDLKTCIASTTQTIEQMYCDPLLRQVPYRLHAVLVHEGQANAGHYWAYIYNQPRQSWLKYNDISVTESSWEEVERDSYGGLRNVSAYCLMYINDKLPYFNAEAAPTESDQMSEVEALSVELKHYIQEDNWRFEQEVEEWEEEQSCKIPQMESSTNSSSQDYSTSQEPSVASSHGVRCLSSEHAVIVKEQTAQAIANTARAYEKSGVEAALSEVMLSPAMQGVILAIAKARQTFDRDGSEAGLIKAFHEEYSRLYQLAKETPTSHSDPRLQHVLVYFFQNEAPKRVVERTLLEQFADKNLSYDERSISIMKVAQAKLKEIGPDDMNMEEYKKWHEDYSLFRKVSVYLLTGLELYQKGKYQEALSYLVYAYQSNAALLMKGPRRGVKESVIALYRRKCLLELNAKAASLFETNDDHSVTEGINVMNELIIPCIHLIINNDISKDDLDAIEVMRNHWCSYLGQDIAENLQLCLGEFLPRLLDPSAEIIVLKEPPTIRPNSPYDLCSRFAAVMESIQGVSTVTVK
Assay: Ubiquitin-Rhodamine 110 Assay for USP28 Activity, Example A-1(b)
Type: biochemical
Procedure, shortened: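 Single-point screening used 10 μM compound with 90 min room-temperature incubation; follow-up dose-responses (25 μM top, 3-fold) used 75 pM USP28 1-1077 construct, 30 min compound preincubation, 25 nM Ub-Rh110, 20 min reaction, citric acid quench. Rh110 fluorescence normalised to no-enzyme and DMSO controls; IC50 from 4-parameter logistic fit.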

[1] = Ubiquitin-Rhodamine 110 assay, format Example A-1(b)

Compound | USP28 A-1(b) IC50 range (Ub-Rh110 assay, Example A-1(b)) | USP28 A-1(b) IC50 range [1]
Cc1ccc2c(N)c(C(=O)N[C@H]3COc4cc(N5CCN[C@@H](C)[C@H]5C)ccc4C3)sc2n1 (single isomer, unassigned) [Example 1-7] | ++++ (0.001-0.05 μM) | 
Cc1nc2sc(C(=O)N[C@H]3CCc4cc(N5CCNCC5)ccc4C3)c(N)c2s1 (single isomer, unassigned) [Example 11-33] |  | + (>2 μM)
Cc1nc2sc(C(=O)N[C@@H]3CCc4cc(N5CC6CCC(C5)N6)ccc4C3)c(N)c2s1 (single isomer, unassigned) [Example 12-2] |  | ++ (0.2-2 μM)
Cc1ccc2c(N)c(C(=O)N[C@@H]3CCc4c(ccc(N5CC6CCC(C5)N6)c4C#N)C3)sc2n1 (single isomer, unassigned) [Example 14-1] |  | ++++ (0.001-0.05 μM)
Cc1ccc2c(N)c(C(=O)N[C@H]3CCc4c(ccc(N5CC6CCC(C5)N6)c4C#N)C3)sc2n1 (single isomer, unassigned) [Example 14-2] |  | ++ (0.2-2 μM)
Cc1ccc2c(N)c(C(=O)N[C@@H]3CCc4cc(N5CC6CCC(C5)N6)c(C#N)cc4C3)sc2n1 (single isomer, unassigned) [Example 14-3] |  | ++ (0.2-2 μM)
Cc1ccc2c(N)c(C(=O)N[C@H]3CCc4cc(N5CC6CCC(C5)N6)c(C#N)cc4C3)sc2n1 (single isomer, unassigned) [Example 14-4] |  | ++++ (0.001-0.05 μM)
Cc1cnc2c(N)c(C(=O)N[C@@H]3CCc4c(ccc(N5CC6CCC(C5)N6)c4C#N)C3)sc2n1 (single isomer, unassigned) [Example 14-5] |  | +++ (0.05-0.2 μM)
Cc1cnc2c(N)c(C(=O)N[C@H]3CCc4c(ccc(N5CC6CCC(C5)N6)c4C#N)C3)sc2n1 (single isomer, unassigned) [Example 14-6] |  | + (>2 μM)
Cc1cnc2c(N)c(C(=O)N[C@@H]3CCc4cc(N5CC6CCC(C5)N6)c(C#N)cc4C3)sc2n1 (single isomer, unassigned) [Example 14-7] |  | ++ (0.2-2 μM)
Cc1cnc2c(N)c(C(=O)N[C@H]3CCc4cc(N5CC6CCC(C5)N6)c(C#N)cc4C3)sc2n1 (single isomer, unassigned) [Example 14-8] |  | ++++ (0.001-0.05 μM)
